Where two headings read alike, the source gives them in different places.
Target: SARS-CoV-2 PL^pro (Severe acute respiratory syndrome coronavirus 2, UniProt P0DTD1)
Test: SARS-CoV-2 PL^pro enzymatic inhibition assay (substrate Z-RLRGG-AMC)
Format: biochemical
[1] = Table S2, PL^pro inhibitors, 40 nmol/L enzyme, 50 µmol/L substrate, read-out: IC50
[2] = Table S6, S/KM = 1/4, read-out: IC50 (μM) at S/KM 1/4
[3] = Table S6, S/KM = 2, read-out: IC50 (μM) at S/KM 2
[4] = Table S6, S/KM = 4, read-out: IC50 (μM) at S/KM 4
[5] = read-out: IC50 (μM) at S/KM 1/2
[6] = read-out: IC50 (μM) at S/KM 1/4
[7] = read-out: IC50 / inhibitory activity toward PL^pro
[8] = Table S3, representative dual inhibitors, read-out: IC50 for PL^pro

Row | Structure (SMILES) | IC50 [1] | IC50 [2] | IC50 [3] | IC50 [4] | IC50 (read-out: IC50 (μM) at S/KM 1) | IC50 [5] | IC50 [6] | IC50 (Table S6, S/KM = 1, read-out: IC50 (μM) at S/KM 1) | IC50 [7] | IC50 [8]
1 | CCC(C(=O)NCc1ccco1)n1c(Cc2c(Cl)cccc2Cl)nc2ccccc21 (stereo not shown) [CD3226-D010] | 8.61 ± 3.07 µM | 7.6 ± 1 µM | – | – | – | – | – | – | – | –
2 | CC(C(=O)NCc1ccco1)n1c(Cc2c(Cl)cccc2Cl)nc2ccccc21 (stereo not shown) [CD3531-C011] | 1.98 ± 0.23 µM | – | 2.4 ± 0.2 µM | 2.7 ± 0.1 µM | 2.2 ± 0.3 µM | 1.5 µM | 1.5 ± 0.4 µM | – | – | –
3 | O=C(NCc1n[nH]c(=S)n1-c1ccc(Br)cc1)c1ccc(Cl)cc1Cl [JK0108-D008] | 58.8 ± 15.3 µM | 100 ± 29.6 µM | 200 ± 47.6 µM | 133 ± 14.7 µM | – | 94.6 ± 11.3 µM | – | 102 ± 1.2 µM | 58.8 ± 15.3 µM | –
4 | CCOc1cc(C(=O)NCc2n[nH]c(=S)n2-c2ccc(Br)cc2)cc(OCC)c1OCC [JK0109-B004] | 43 ± 0.92 µM | 2.4 ± 0.1 µM | 8.5 ± 0.9 µM | 18.3 ± 1 µM | 5.9 ± 0.6 µM | 2.6 ± 0.5 µM | – | – | – | 43 ± 0.9 µM
5 | COc1ccc(-n2c(CNC(=O)COc3ccc(Cl)cc3Cl)n[nH]c2=S)cc1 [JK0109-B011] | 6.01 ± 0.02 µM | – | 12.4 ± 1.7 µM | – | 7.3 ± 0.1 µM | 7.4 ± 0.6 µM | 7.9 ± 1.7 µM | – | 6 µM | –
6 | COc1ccc(-n2c(S)nnc2CNC(=O)c2cc(OC)c(OC)c(OC)c2)cc1 [JK0109-C011] | 21.2 ± 1.79 µM | – | 10.7 ± 0.7 µM | 18.6 ± 2.7 µM | 9.4 ± 2.9 µM | 7.1 ± 0.7 µM | 5.9 ± 0.2 µM | – | – | 21.2 ± 1.8 µM
7 | O=C(COc1ccc(Cl)cc1)NCc1n[nH]c(=S)n1-c1ccc(Br)cc1 [JK0109-H005] | – | – | 78.5 ± 5.7 µM | 91.6 ± 8.9 µM | 33 ± 17.9 µM | 21.9 ± 2 µM | – | – | – | –
8 | O=c1sc2ccccc2n1Cc1n[nH]c(=S)n1-c1ccccc1 [JK0946-F007] | – | – | 105 ± 4.7 µM | 202 ± 50.9 µM | 43.9 ± 9 µM | 30.3 ± 2.3 µM | – | – | – | –

Reference: article PMC9871955, “High-throughput screening of SARS-CoV-2 main and papain-like protease inhibitors” (Protein & Cell, 2022)
